Reference: ChEMBL document CHEMBL4043188, “Structural characterization of a new steroidal saponin from Agave angustifolia var. Marginata and a preliminary investigation of its in vivo antiulcerogenic activity and in vitro membrane permeability property” (Bioorg Med Chem Lett, 2017)
Active and inactive are the calls of the source. No cut-off for these calls is given here.

System: Mus musculus
Assay: Antiulcerogenic activity against acidified ethanol induced-gastric lesions in Swiss mouse at 100 mg/kg, po administered 1 hr prior to acidified ethanol challenge measured after 1 hr
Assay type: functional, organism-based

Row | Compound | Activity
1 | C[C@@H]1CC[C@@]2(OC1)O[C@H]1C[C@H]3[C@@H]4C[C@H](O)[C@H]5C[C@@H](O[C@@H]6O[C@H](CO)[C@H](O[C@@H]7O[C@H](CO)[C@@H](O)[C@H](O[C@@H]8O[C@H](CO)[C@@H](O[C@@H]9O[C@@H](C)[C@H](O)[C@@H](O)[C@H]9O)[C@H](O)[C@H]8O)[C@H]7O[C@@H]7O[C@H](CO)[C@@H](O)[C@H](O[C@@H]8O[C@H](CO)[C@@H](O)[C@H](O)[C@H]8O)[C@H]7O)[C@H](O)[C@H]6O)CC[C@]5(C)[C@H]4CC(=O)[C@]3(C)[C@H]1[C@@H]2C | Active
2 | CO[C@]1(CC[C@@H](C)CO[C@H]2O[C@@H](CO)[C@H](O)[C@@H](O)[C@@H]2O)O[C@H]2C[C@H]3[C@@H]4CC[C@H]5C[C@@H](O[C@@H]6O[C@H](CO)[C@H](O[C@@H]7O[C@H](CO)[C@@H](O)[C@H](O[C@@H]8O[C@H](CO)[C@@H](O)[C@H](O[C@@H]9O[C@H](CO)[C@@H](O)[C@H](O)[C@H]9O)[C@H]8O)[C@H]7O[C@@H]7OC[C@@H](O[C@@H]8O[C@@H](C)[C@H](O)[C@@H](O)[C@H]8O)[C@H](O)[C@H]7O)[C@H](O)[C@H]6O)CC[C@]5(C)[C@H]4CC[C@]3(C)[C@H]2[C@@H]1C | Active
